Thermodynamic stability and solubility data for one compound are collected here from patent publication US7714158B2, “Ibandronate polymorph” (Hoffmann-La Roche Inc., priority 2005, dated 2010).

Series [1] can be described thus: Relative thermodynamic stability of Ibandronate polymorphs. The following applies: compared with polymorph B.
A short description of series [2]: Solubility measurement of crystalline Ibandronate polymorphs by suspension and complexometric titration. Conditions: Polymorph A; water; 25° C., 24 h stirred + 24 h unstirred; listed as Ibandronate polymorph A, monosodium salt monohydrate. The class given is physicochemical. Here is the method:
The solubility of the individual crystalline Ibandronate polymorphs A and B was measured for various solutions. Approximately 10 g of the corresponding polymorph A or B were suspended in three different buffer solutions at pH 2, pH 4 (Titrisol-buffer, citrate/HCl), at pH 7 (methenamine buffer, HCl) or in water. The suspension was stirred for 24 hours at 25° C. and was kept additionally 24 hours without stirring at the same temperature. Solubility was calculated by titration according to the following method.
The residue was filtered, 2 ml of the filtrate taken, 5 ml of Titriplex III solution were added and diluted with water to 100 ml. 2 ml of this solution were added to approximately 0.1 ml of xylenol orange indicator and the pH was adjusted to 6.5 by adding small portions of methenamine buffer solution or 0.1 M hydrochloric acid. The solution is titrated immediately with Th-DCTA-xylenol orange complex until the color changes from yellow to reddish-violet. The endpoint is determined photometrically.

Regarding `CCCCCN(C)CCC(O)(P(=O)([O-])O)P(=O)(O)O.O.[Na+]` [Polymorph A, 3-(N-methyl-N-pentyl) amino-1-hydroxypropane-1,1-diphosphonic acid monosodium salt monohydrate], the thermodynamic stability result in series [1] is given as “thermodynamically more stable”. Also, the solubility entry in series [2] is reported as “about 278 g/l”.
